Article PMC4955205, “EctD-mediated biotransformation of the chemical chaperone ectoine into hydroxyectoine and its mechanosensitive channel-independent excretion” (Microbial Cell Factories, 2016)

Tests used:
Assay type in all cases: cell-based
ProU ABC transporter = target: T1, ProU ABC transporter (Escherichia coli, UniProt P0AFM2); assay: inhibition of [[…]-14C]glycine betaine uptake, whole cells of ProP- ProU+ strain; details: 100 µM [1-14C]glycine betaine, MMA with 0.4 M NaCl, 37 °C, 5 min
T1 construct: gene proX; native chromosomal transporter in whole cells of a proP deletion strain; with Glycine betaine/proline betaine transport system permease protein ProW
T1 sequence (P14176 whole entry): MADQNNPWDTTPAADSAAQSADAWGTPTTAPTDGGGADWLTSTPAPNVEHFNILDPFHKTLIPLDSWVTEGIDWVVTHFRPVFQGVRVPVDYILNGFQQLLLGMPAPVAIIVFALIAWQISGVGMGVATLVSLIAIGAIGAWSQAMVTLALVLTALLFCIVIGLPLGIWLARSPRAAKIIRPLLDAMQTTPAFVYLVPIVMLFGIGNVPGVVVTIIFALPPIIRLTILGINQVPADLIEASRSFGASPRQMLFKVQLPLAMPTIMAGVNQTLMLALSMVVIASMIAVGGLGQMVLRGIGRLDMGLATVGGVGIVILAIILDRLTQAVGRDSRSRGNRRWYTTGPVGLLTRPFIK
T1 sequence (P0AFM2 22-330): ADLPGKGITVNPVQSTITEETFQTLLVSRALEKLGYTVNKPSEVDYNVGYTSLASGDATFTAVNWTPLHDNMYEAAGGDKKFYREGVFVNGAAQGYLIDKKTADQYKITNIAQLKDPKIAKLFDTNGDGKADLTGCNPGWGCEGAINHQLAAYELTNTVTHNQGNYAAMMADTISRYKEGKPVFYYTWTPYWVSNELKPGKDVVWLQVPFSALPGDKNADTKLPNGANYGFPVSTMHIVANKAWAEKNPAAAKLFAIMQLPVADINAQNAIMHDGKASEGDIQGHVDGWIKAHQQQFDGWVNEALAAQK
T1 sequence (P14175 whole entry, further chain): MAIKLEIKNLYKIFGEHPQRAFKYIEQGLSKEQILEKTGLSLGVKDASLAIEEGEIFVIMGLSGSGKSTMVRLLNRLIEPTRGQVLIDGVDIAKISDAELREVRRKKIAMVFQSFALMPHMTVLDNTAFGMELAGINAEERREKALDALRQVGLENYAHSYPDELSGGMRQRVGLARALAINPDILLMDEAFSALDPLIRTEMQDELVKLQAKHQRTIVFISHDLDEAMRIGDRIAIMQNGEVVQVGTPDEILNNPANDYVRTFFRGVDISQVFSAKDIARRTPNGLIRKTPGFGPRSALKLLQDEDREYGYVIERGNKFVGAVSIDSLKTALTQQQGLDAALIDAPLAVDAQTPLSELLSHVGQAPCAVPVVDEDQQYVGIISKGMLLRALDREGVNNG

EctD (P. lautus) = target: T2, EctD (P. lautus) (Paenibacillus lautus, UniProt A0A385TC02); assay: whole-cell biotransformation in E. coli FF4169, HPLC; details: 10 mM ectoine in medium, MMA with 0.4 M NaCl, 37 °C, 24 h; Fe(II) and 2-oxoglutarate of the cell
T2 construct: gene thpD; full length, Strep-tag II, codon-optimized gene, plasmid pMP43, expressed in E. coli FF4169
T2 sequence (A0A385TC02 1-302): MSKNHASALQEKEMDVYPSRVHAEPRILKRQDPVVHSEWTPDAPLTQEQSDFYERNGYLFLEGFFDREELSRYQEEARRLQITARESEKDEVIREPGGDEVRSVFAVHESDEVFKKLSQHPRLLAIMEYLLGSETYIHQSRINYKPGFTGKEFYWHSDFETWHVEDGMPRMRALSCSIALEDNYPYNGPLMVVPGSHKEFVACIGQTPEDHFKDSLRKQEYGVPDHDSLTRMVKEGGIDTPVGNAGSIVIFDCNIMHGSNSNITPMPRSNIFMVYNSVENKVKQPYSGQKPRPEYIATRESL

EctD (H. elongata) = target: T3, EctD (H. elongata) (Halomonas elongata, UniProt E1VA04); assay: as above; details: 10 mM ectoine in medium, MMA with 0.4 M NaCl, 37 °C, 24 h; Fe(II) and 2-oxoglutarate of the cell
T3 construct: full length, Strep-tag II, plasmid pMP32, expressed in E. coli FF4169
T3 sequence (E1VA04 1-332): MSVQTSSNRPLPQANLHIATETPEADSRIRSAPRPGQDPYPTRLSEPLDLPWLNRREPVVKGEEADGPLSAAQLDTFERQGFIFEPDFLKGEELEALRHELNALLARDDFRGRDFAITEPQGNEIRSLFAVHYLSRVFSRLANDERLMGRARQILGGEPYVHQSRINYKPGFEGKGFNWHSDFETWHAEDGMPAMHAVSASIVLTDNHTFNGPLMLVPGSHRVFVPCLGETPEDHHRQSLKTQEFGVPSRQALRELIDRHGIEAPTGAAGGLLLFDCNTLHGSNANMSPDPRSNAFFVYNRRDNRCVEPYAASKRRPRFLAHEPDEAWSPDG

[1] = target: T4, EctD (P. stutzeri A1501), ectoine hydroxylase (Stutzerimonas stutzeri, UniProt A4VFY4); assay: as above; details: 10 mM ectoine in medium, MMA with 0.4 M NaCl, 37 °C, 24 h; Fe(II) and 2-oxoglutarate of the cell
T4 construct: homodimer
T4 sequence (A4VFY4 1-302): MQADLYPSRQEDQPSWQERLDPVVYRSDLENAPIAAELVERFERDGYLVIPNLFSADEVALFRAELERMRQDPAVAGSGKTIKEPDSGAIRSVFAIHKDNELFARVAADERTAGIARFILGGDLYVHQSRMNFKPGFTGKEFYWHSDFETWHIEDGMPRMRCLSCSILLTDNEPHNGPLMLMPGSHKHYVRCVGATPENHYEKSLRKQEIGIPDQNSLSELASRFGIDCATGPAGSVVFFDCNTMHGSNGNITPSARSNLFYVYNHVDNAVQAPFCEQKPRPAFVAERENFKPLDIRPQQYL

EctD (N. maritimus) = target: T5, EctD (N. maritimus) (Nitrosopumilus maritimus, UniProt A9A2K0); assay: as above; details: 10 mM ectoine in medium, MMA with 0.4 M NaCl, 37 °C, 24 h; Fe(II) and 2-oxoglutarate of the cell
T5 construct: gene Nmar_1343; full length, Strep-tag II, codon-optimized gene, plasmid pMP45, expressed in E. coli FF4169
T5 sequence (A9A2K0 1-304): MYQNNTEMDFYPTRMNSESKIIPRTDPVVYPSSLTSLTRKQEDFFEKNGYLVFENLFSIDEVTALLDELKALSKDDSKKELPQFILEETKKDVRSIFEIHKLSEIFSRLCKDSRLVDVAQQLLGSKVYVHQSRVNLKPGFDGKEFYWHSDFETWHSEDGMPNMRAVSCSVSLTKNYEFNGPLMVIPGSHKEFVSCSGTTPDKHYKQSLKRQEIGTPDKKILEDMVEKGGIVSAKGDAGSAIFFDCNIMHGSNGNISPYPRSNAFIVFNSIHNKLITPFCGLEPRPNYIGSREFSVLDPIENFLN

EctD (S. alaskensis) = target: T6, EctD (S. alaskensis) (Sphingopyxis alaskensis, UniProt Q1GNW5); assay: as above; details: 10 mM ectoine in medium, MMA with 0.4 M NaCl, 37 °C, 24 h; Fe(II) and 2-oxoglutarate of the cell
T6 construct: full length, Strep-tag II, plasmid pMP40, expressed in E. coli FF4169; homodimer
T6 sequence (Q1GNW5 1-306): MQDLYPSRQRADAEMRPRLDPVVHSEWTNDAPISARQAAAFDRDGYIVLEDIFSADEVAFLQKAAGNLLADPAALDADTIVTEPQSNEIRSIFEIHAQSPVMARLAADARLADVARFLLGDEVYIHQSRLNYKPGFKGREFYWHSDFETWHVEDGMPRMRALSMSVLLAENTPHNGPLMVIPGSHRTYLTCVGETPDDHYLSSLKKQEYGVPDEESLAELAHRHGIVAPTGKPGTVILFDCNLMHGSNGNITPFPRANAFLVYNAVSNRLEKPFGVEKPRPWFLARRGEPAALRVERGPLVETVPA

EctD (A. ehrlichii) = target: T7, EctD (A. ehrlichii) (Alkalilimnicola ehrlichii, UniProt A0A3E0X329); assay: as above; details: 10 mM ectoine in medium, MMA with 0.4 M NaCl, 37 °C, 24 h; Fe(II) and 2-oxoglutarate of the cell
T7 construct: gene CAL65_03675; full length, Strep-tag II, codon-optimized gene, plasmid pMP44, expressed in E. coli FF4169
T7 sequence (A0A3E0X329 1-303): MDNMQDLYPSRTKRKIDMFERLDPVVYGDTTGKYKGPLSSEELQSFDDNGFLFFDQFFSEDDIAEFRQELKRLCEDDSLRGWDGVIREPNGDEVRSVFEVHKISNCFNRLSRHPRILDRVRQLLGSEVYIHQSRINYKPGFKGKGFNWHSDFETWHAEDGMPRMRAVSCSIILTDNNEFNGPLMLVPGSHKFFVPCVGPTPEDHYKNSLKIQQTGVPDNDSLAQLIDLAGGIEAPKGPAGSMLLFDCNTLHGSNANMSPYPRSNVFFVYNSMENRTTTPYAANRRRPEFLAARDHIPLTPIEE

ProP = target: T8, ProP (Escherichia coli, UniProt P0C0L7); assay: inhibition of [[…]-14C]glycine betaine uptake, whole cells of ProP+ ProU- strain; details: 100 µM [1-14C]glycine betaine, MMA with 0.4 M NaCl, 37 °C, 5 min; unlabelled glycine betaine 1 mM; labelled compound
T8 construct: native chromosomal transporter in whole cells of a proU deletion strain
T8 sequence (P0C0L7 whole entry): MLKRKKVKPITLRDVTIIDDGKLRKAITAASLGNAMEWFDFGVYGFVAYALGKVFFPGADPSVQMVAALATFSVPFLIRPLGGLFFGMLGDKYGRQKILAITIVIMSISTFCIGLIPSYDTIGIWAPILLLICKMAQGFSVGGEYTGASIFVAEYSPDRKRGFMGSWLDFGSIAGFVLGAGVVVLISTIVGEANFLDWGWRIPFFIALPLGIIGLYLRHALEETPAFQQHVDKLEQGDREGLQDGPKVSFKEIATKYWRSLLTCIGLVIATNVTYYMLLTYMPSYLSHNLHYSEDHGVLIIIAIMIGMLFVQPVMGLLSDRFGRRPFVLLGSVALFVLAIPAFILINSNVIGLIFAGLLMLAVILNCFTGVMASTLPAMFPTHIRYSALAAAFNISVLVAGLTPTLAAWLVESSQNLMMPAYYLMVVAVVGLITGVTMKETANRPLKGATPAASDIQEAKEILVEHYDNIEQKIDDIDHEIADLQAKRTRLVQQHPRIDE

Compound	% inhibition at 1000-fold excess (ProU ABC transporter; competitor 1000-fold excess (100 mM))	whole-cell biotransformation in E. coli FF4169, HPLC (EctD (P. lautus))	whole-cell biotransformation in E. coli FF4169, HPLC (EctD (H. elongata))	whole-cell biotransformation in E. coli FF4169, HPLC [1]	whole-cell biotransformation in E. coli FF4169, HPLC (EctD (N. maritimus))	whole-cell biotransformation in E. coli FF4169, HPLC (EctD (S. alaskensis))	whole-cell biotransformation in E. coli FF4169, HPLC (EctD (A. ehrlichii))	% inhibition at tenfold excess (ProU ABC transporter; unlabelled glycine betaine 1 mM, labelled compound)	% inhibition at tenfold excess (ProP)
CC1=NCC[C@@H](C(=O)O)N1 [ectoine, (S)-2-methyl-1,4,5,6-tetrahydropyrimidine-4-carboxylic acid]	45%	a mixture of the added ectoine and the newly produced 5-hydroxyectoine were observed	a mixture of the added ectoine and the newly produced 5-hydroxyectoine were observed	almost all of the provided ectoine had been converted into 5-hydroxyectoine	almost all of the provided ectoine had been converted into 5-hydroxyectoine	a mixture of the added ectoine and the newly produced 5-hydroxyectoine were observed	a mixture of the added ectoine and the newly produced 5-hydroxyectoine were observed		
C[N+](C)(C)CC(=O)[O-] [glycine betaine]								~ 85%	~ 85%
